From patent US10874669B2 (WAYNE STATE UNIVERSITY, priority 2018, dated 2020)
Entries after “also recorded” stand apart in the source; their conditions may differ.

Key:
α-syn = α-syn (Homo sapiens (Human), UniProt P37840); settings: previously shown; cited from earlier work
PC12 cells [1] = settings: previously shown; cited from earlier work
human DA D3 receptors = human DA D3 receptors (Homo sapiens (Human), UniProt P35462); assay: [35S]GTPγS binding stimulation, human D3 receptors in CHO cells; assay type: biochemical
human DA D3 receptors, sequence (P35462 whole entry): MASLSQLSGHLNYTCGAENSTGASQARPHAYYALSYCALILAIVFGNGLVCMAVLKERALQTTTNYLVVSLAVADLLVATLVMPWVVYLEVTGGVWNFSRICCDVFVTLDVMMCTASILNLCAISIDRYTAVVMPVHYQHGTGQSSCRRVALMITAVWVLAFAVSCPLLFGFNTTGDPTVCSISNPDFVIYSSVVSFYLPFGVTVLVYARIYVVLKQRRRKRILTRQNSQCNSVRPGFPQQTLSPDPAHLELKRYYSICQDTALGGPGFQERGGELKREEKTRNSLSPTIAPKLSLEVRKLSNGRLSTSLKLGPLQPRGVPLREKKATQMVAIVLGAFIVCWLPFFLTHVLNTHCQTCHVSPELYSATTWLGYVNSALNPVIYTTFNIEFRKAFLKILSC

[2] = tested on: reserpine-induced hypolocomotion in rats; assay: Reversal of reserpine-induced hypolocomotion in rats; settings: 10 μMol/kg, ip
Method: In this model depletion of catecholamines by reserpine results in catalepsy in rats.
The following commercially available drug was used in the experiment: reserpine hydrochloride (Alfa Aesar). […] The compounds for this study were administered in a volume of 0.1-0.2 mL for subcutaneous administration and 0.5-0.7 ml for interaperitoneal administration into each rat.
In rodent studies, animals were male and female Sprague-Dawley rats from Harlan (Indianapolis, Ind.) weighing 220-225 g unless otherwise specified. Animals were maintained in sawdust-lined cages in a temperature and humidity controlled environment at 22±1° C. and 60±5% humidity, respectively. A 12 h light/dark cycle was maintained, with lights on from 6:00 a.m. to 6:00 p.m. They were group-housed with unrestricted access to food and water. All experiments were performed during the light component.
Reserpine (5.0 mg/kg, sc) was administered 18 h before the injection of drug or vehicle. The rats were placed individually in the chambers for 1 h for acclimatization before administration of the test drugs or vehicle. Immediately after administration of drug or vehicle, animals were individually placed in Opto-Varimex 4 animal activity monitor chamber (Columbus Instruments, Ohio, USA) to start measuring locomotor activity. Locomotion was monitored for 6 h. […] The data were presented as horizontal activity (HACTV). […] The data were analyzed by one-way analysis of variance (ANOVA) followed by Dunnett's post hoc test.

PC12 cells [3] = assay: MTT neuroprotection against 6-OHDA-induced toxicity; assay type: cell-based, rat
Method: (§1) To investigate the neuroprotection property of the selected target molecules (−)-91b, (−)-95a and (−)-95c against 6-OHDA-induced cytotoxicity, we used dopaminergic rat adrenal Pheochromocytoma PC12 cells. As reported above, treatment of PC12 cells with 6-OHDA at 75 μM for 24 h produced ˜50% loss in cells viability and this concentration was used in subsequent experiments. […] However, (−)-95a produced some incremental toxicity starting at 20 μM dose (FIG. 4B). The potential neuroprotective effects of (−)-91b, (−)-95a and (−)-95c against 6-OHDA-induced toxicity were evaluated next. […] At those concentration both drugs increased cell survival by ˜20% compared to 6-OHDA (75 μM) treated alone (FIGS. 4D and 4F), indicating neuroprotective effect of these drugs. […] This could be due to the fact that the compound by itself produced toxicity to the cells at doses ≥20 μM and the presence of 6-OHDA enhanced the toxicity (FIG. 4B).
PC12 cells (ATCC CRL1721.1, Manassas, Va., USA), a rat adrenal pheochromocytoma cell line, were cultured in T-75 flasks (Greiner Bio One, Frickenhausen, Germany) and maintained in RPMI 1640 medium supplemented with 10% heat inactivated horse serum, 5% fetal bovine serum, 100 U/ml penicillin, and 100 μg/mL streptomycin at 37° C. in 95% air/5% CO2. Stock solutions of (−)-91b, (−)-95a, (−)-95c, and 6-hydroxydopamine (6-OHDA) were prepared in dimethylsulfoxide (DMSO) and aliquots were stored at −20° C. and −80° C., respectively. For all experiments assessing neuroprotective effects of the test compounds, PC12 cells were pretreated with indicated concentrations of (−)-91b, (−)-95a and (−)-95c for 24 h and then treated with 75 μM 6-OHDA for another 24 h. The control cells were treated with above media containing 0.01% DMSO only.
PC12 cells were plated at 17000 cells/well density in 100 μL of media in 96-well plates and incubated at 37° C. under 5% CO2 atmosphere for 24 h. Cells were treated with varying concentrations of the test compounds to determine their direct effect on cell viability. Neuroprotection experiments were conducted by treating cells for 24 h with varying concentrations of (−)-91b, (−)-95a and (−)-95c. Then the drug containing media was replaced with fresh culture media followed by treatment with 75 μM of 6-OHDA alone for an additional 24 h under the same condition. After incubation for 24 h, 5 mg/mL MTT solution (prepared in Dulbecco's phosphate-buffered saline) was added to the cells (to a final concentration of 0.5 mg/mL) and the plates were further incubated at 37° C. in 95% air/5% CO2 atmosphere for 3-4 h to produce dark-blue formazan crystals. Afterward, the plates were centrifuged at 450 g for 10 min and the supernatants were carefully removed. Formazan crystals were dissolved by adding 100 μL of methanol:DMSO (1:1) mixture to each well and shaking gently at 400 rpm for 30 min at room temperature on a Thermomix R shaker (Eppendorf, Hamburg, Germany). The absorbance was measured on a microplate reader (Biotek Epoch, Winooski, Vt., USA) at 570 nm with background correction performed at 690 nm. Data from at least three experiments were analyzed using GraphPad software (version 6, San Diego, Calif., USA). Cell viability was defined as […] compared to untreated controls.

cloned rat D2L receptors = cloned rat D2L receptors (Rattus norvegicus (Rat), UniProt P61169); assay: [3H]spiroperidol competition binding, rat D2L receptors in HEK-293 cells; settings: rat D2 in HEK-293 cells; values of Table 3
cloned rat D2L receptors, sequence (P61169 whole entry): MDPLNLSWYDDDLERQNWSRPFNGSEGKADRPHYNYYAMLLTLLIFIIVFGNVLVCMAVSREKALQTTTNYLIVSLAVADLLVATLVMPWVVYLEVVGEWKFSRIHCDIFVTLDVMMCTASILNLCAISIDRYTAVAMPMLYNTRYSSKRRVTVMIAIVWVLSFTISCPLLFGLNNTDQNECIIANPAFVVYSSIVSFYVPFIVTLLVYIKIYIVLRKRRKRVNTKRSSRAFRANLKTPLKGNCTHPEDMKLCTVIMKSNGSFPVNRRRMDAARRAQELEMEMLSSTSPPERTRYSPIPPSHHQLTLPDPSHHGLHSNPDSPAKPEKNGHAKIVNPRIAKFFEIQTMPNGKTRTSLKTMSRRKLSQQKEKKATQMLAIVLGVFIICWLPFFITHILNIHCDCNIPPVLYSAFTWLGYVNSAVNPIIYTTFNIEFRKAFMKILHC
Excerpt: (§2) All these procedures were described by us previously.

PC12 cells [4] = assay: DCFDA fluorescence assay of intracellular ROS induced by 6-OHDA; assay type: cell-based, rat; settings: 20 μM, 24 h pretreatment, then 75 μM 6-OHDA 1 h
Method: Experimental detection of reactive oxygen species (ROS) produced by 6-OHDA was carried out by DCFDA assay. 6-OHDA, a well known neurotoxin, produces oxidative stress similar to what is observed in PD and the mechanism of neurotoxicity of 6-OHDA takes place via its auto-oxidation and subsequent generation of hydrogen peroxide. DCFDA is a non-fluorogenic dye but in the presence of ROS, it is oxidized to produce DCF which produces florescence. We have previously shown that 6-OHDA causes cell death in a dose-dependent manner. We chose 75 μM 6-OHDA as we have shown that this dose induces 40-50% cell death. […] However, the test compounds could dose dependently decrease the production of ROS induced by 6-OHDA (75 μM) in PC12 cells. In this regard, highest dose of all the three compounds was the most efficacious in producing significant antioxidant effect.
(§3) PC12 cells (ATCC CRL1721.1, Manassas, Va., USA), a rat adrenal pheochromocytoma cell line, were cultured in T-75 flasks (Greiner Bio One, Frickenhausen, Germany) and maintained in RPMI 1640 medium supplemented with 10% heat inactivated horse serum, 5% fetal bovine sérum, 100 U/ml penicillin, and 100 μg/mL streptomycin at 37° C. in 95% air/5% CO2. […]
PC12 cells were plated at 30,000 cells/well density in 100 μL media in 96-well black plates and incubated at 37° C. under 5% CO2 atmosphere for 24 h. […] After incubation for 1 h, the fluorescence was measured using spectrophotometer fluorescence generated microplate reader (Biotek Epoch, Winooski, Vt., USA) at excitation 497 nm and emission at 527 nm. […] The specific fluorescence emission was calculated after subtraction of the DCFDA untreated control cells from the DCFDA treated cells for both the background and 1 h treatment conditions. This was followed by the division of the 1 h treatment data by the background activity which was determined from vials before treatment with 6-OHDA, to derive the final data point.

cloned rat D3 receptors = cloned rat D3 receptors (Rattus norvegicus (Rat), UniProt P19020); assay: [3H]spiroperidol competition binding, rat D3 receptors in HEK-293 cells; settings: rat D3 in HEK-293 cells; values of Table 3
cloned rat D3 receptors, sequence (P19020 whole entry): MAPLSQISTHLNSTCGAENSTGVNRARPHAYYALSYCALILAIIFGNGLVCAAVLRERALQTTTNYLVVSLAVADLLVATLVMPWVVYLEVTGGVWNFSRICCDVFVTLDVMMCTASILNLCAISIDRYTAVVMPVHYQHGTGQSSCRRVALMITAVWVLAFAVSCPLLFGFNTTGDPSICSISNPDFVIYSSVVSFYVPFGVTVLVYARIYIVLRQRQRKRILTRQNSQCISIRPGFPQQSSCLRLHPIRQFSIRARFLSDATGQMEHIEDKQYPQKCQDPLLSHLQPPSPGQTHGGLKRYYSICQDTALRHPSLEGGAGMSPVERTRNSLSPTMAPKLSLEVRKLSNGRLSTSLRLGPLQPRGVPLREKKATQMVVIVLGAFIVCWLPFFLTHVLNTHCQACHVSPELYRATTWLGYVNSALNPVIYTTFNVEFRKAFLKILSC
Method: A well established radioligand competition assay was carried out to evaluate binding affinity of the test compounds and were compared with that of the reference agent (S)-5-OH-DPAT (Table 3). Binding affinity to rat DA D2 and D3 receptors expressed in HEK-293 cells was determined as described by us previously. […] This indicated highest tolerance of the 4-substituted carbazole derivative for interaction with the D2 and D3 receptors.
as §2

human DA D2 receptors = human DA D2 receptors (Homo sapiens (Human), UniProt P14416); assay: [35S]GTPγS binding stimulation, human D2 receptors in CHO cells; assay type: biochemical
human DA D2 receptors, sequence (P14416 whole entry): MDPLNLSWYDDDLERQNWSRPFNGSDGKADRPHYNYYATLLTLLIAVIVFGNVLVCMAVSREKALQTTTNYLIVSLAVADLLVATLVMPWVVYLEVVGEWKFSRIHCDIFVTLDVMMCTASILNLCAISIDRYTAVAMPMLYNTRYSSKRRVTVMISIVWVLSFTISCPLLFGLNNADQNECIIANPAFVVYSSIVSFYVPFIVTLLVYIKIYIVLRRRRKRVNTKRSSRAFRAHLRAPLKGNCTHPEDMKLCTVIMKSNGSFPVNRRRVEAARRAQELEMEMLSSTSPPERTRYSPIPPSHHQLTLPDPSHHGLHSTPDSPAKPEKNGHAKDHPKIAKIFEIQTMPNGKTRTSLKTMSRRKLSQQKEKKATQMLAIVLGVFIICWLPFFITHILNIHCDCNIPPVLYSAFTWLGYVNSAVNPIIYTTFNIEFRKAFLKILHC

PC12 cells [5] = assay: MTT cell viability, compounds alone; assay type: cell-based, rat; settings: 0.01-30 μM, compared to untreated controls
Method: as §1
as §3, with “serum,” for “sérum,”, “CO2. Stock solutions of (−)-91b, (−)-95a, (−)-95c, and 6-hydroxydopamine (6-OHDA) were prepared in dimethylsulfoxide (DMSO) and aliquots were stored at −20° C. and −80° C., respectively.” for “CO2.”
PC12 cells were plated at 17000 cells/well density in 100 μL of media in 96-well plates and incubated at 37° C. under 5% CO2 atmosphere for 24 h. […] The absorbance was measured on a microplate reader (Biotek Epoch, Winooski, Vt., USA) at 570 nm with background correction performed at 690 nm. Data from at least three experiments were analyzed using GraphPad software (version 6, San Diego, Calif., USA). Cell viability was defined as […] compared to untreated controls.

[6] = compared with maximum stimulation by full agonist DA

| SMILES | decreasing ThT fluorescence, compared to hybrid agonist (α-syn) | reducing toxicities of α-syn aggregates, compared to hybrid agonist (PC12 cells [1]) | EC50 (human DA D3 receptors; CHO cells, read-out: EC50 (GTPγS), D3) | Emax (human DA D3 receptors; [6]) | duration of locomotor activation ([2]; locomotion monitored for 6 h) | reversal of reserpine-induced akinesia / hypolocomotion (horizontal activity) ([2]; reserpine 5 mg/kg sc, 18 h pretreatment, rats) | concentration of greatest protective effect (PC12 cells [3]; 24 h pretreatment, then 75 μM 6-OHDA 24 h) | increase in cell survival compared to 6-OHDA treated alone (PC12 cells [3]; at concentration of greatest protective effect, 75 μM 6-OHDA) | Ki (cloned rat D2L receptors) | reduction in ROS (PC12 cells [4]) | Ki (cloned rat D3 receptors) | EC50 (human DA D2 receptors; CHO cells, read-out: EC50 (GTPγS), D2) | Emax (human DA D2 receptors; [6]) | cell viability, compound alone (PC12 cells [5]) |
| --- | --- | --- | --- | --- | --- | --- | --- | --- | --- | --- | --- | --- | --- | --- |
| CCCN(CCC)C1CCc2c(O)cccc2C1 (stereo not shown) [Compound 5-OHDPAT, 5-hydroxy-2-(dipropylamino)tetralin] | far less effective | far less effective | – | – | – | – | – | – | – | – | – | – | – | – |
| CCCN(CCN1CCN(c2cccc3[nH]c4ccccc4c23)CC1)[C@H]1CCc2c(O)cccc2C1 [Compound (−)-95c, (S)-6-((2-(4-(9H-carbazol-4-yl)piperazin-1-yl)ethyl)(propyl)amino)-5,6,7,8-tetra-hydronaphthalen-1-ol] | – | – | 0.22 nM | 74 to 88% | significant enhancement of locomotion for the duration of the study of 6 h | significantly reversed akinesia; also recorded: significantly different | 20 µM | ~20% | 16.9 nM | 36% | 0.36 nM | 2.29 nM | 74 to 88% | no cells loss |
| CCCN[C@H]1CCc2nc(N)sc2C1 [Pramipexole] | far less effective | far less effective | – | – | – | – | – | – | – | – | – | – | – | – |
